System: cholesterol absorption
Experiment: Cholesterol Absorption Assay in Mice
Assay type: in vivo, C57BL/6 male mice
Settings: at the highest dose tested; oral dosing 0.12-10 mg/kg, [3H]-cholesterol counts in liver and plasma 5 h later
Procedure: Compounds of this invention were determined to inhibit cholesterol absorption employing the Cholesterol Absorption Assay in Mice, below. This assay involves comparing a test compound to ezetimibe with respect to their ability to inhibit cholesterol absorption in mice.
Cholesterol Absorption Assay in Mice:
C57BL/6 male mice (n=6/group), aged 10-14 weeks, were dosed orally with 0.2 ml 0.25% methyl cellulose solution with or without test compound or ezetimibe (0.12-10 mg/kg). Thirty minutes later all of the mice were dosed orally with 0.2 ml […]™ containing 2 μCi [^3H]-cholesterol per mouse. Five hours later, the animals were euthanized, and liver and blood were collected. Cholesterol counts in liver and plasma were determined, and percent inhibition of cholesterol absorption was calculated.

For `O=C1[C@H](CC[C@H](O)c2ccc(F)cc2)[C@@H](c2ccc(O)cc2)N1c1ccc(F)cc1` [ezetimibe], the “inhibition of cholesterol absorption” value was > 90%.

— US7696177B2, “Anti-hypercholesterolemic compounds” (Merck Sharp & Dohme Corp., priority 2005, dated 2010)
